Experimental data as given in ChEMBL document CHEMBL5154834, “Anti-neuroinflammatory effects of novel 5,6-dihydrobenzo[h]quinazolin-2-amine derivatives in lipopolysaccharide-stimulated BV2 microglial cells” (Eur J Med Chem, 2022).

Assays:
[1] = Cytotoxicity against mouse BV-2 cells assessed as survival rate at 2.5 ug/ml incubated for 24 hrs by MTT assay; format: toxicity, cell-based; settings: at 2.5 µg/mL, read-out: Activity
BV-2 [2] = experiment: Anti-neuroinflammatory activity in mouse BV-2 cells assessed as inhibition of LPS-stimulated IL-6 production at 2.5 ug/ml measured after 24 hrs by ELISA; format: functional; set-up: scale not given: the % may be the effect or the level left; settings: dose 2.5 µg/ml
BV-2 [3] = experiment: Anti-neuroinflammatory activity in mouse BV-2 cells assessed as inhibition of LPS-stimulated TNF-alpha production at 2.5 ug/ml measured after 24 hrs by ELISA; format: functional; set-up: scale not given: the % may be the effect or the level left; settings: dose 2.5 µg/ml
BV-2 [4] = experiment: Anti-neuroinflammatory activity in mouse BV-2 cells assessed as reduction of LPS-stimulated IkappaBalpha phosphorylation level at 1.25 to 5 ug/ml and measured after 24 hrs by westernblot analysis; format: functional, cell-based; settings: dose 1.25-5 µg/ml, DDE = dose-dependent effect
BV-2 [5] = experiment: Neuroprotective activity against LPS-induced mouse BV-2 cell death assessed as late apoptotic cells at 2.5 uM and measured after 24 hrs by Annexin V-FITC/PI staining based flow cytometry method (reference value: 0%); format: functional
BV-2 [6] = experiment: Neuroprotective activity against LPS-induced mouse BV-2 cell death assessed as late apoptotic cells at 5 uM and measured after 24 hrs by Annexin V-FITC/PI staining based flow cytometry method (reference value: 0%); format: functional
BV-2 [7] = experiment: Neuroprotective activity against LPS-induced mouse BV-2 cell death assessed as reversal of apoptosis at 2.5 uM and measured after 24 hrs by Annexin V-FITC/PI staining based flow cytometry method (reference value: 91.6%); format: functional
BV-2 [8] = experiment: Neuroprotective activity against LPS-induced mouse BV-2 cell death assessed as reversal of apoptosis at 5 uM and measured after 24 hrs by Annexin V-FITC/PI staining based flow cytometry method (reference value: 91.6%); format: functional
BV-2 [9] = experiment: Anti-neuroinflammatory activity in mouse BV-2 cells assessed as inhibition of LPS-induced ASC expression level at 1.25 to 5 ug/ml and measured after 24 hrs by western blot analysis; format: functional, cell-based; settings: dose 1.25-5 µg/ml, DDE = dose-dependent effect
BV-2 [10] = experiment: Anti-neuroinflammatory activity in mouse BV-2 cells assessed as inhibition of LPS-induced caspase-1 expression level at 1.25 to 5 ug/ml and measured after 24 hrs by western blot analysis; format: functional, cell-based; settings: dose 1.25-5 µg/ml, DDE = dose-dependent effect
BV-2 [11] = experiment: Anti-neuroinflammatory activity in mouse BV-2 cells assessed as inhibition of LPS-induced NLRP3 expression level at 1.25 to 5 ug/ml and measured after 24 hrs by western blot analysis; format: functional, cell-based; settings: dose 1.25-5 µg/ml, DDE = dose-dependent effect

SMILES | viability at 24 h, 2.5 ug/ml [1] | Activity (BV-2 [2]) | Activity (BV-2 [3]) | also measured
COc1cccc(/C=C2\CCc3ccc(Br)cc3C2=O)n1 | 94.7% | 44.9% | 31.9% | –
COc1ccc2c(c1)-c1nc(N)nc(-c3cccc(OC)n3)c1CC2 | 94.8% | 44.1% | 44.9% | –
COc1ccc2c(c1)C(=O)/C(=C/c1cccc(OC)n1)CC2 | 90.4% | 54% | 40.6% | –
COc1cccc(-c2nc(N)nc3c2CCc2ccc(F)cc2-3)c1 | 95% | 66.6% | 53.8% | –
COc1ccc(/C=C2\CCc3ccc(Br)cc3C2=O)cn1 | 89.5% | 45.5% | 32.5% | –
COc1cc(/C=C2\CCc3ccc(F)cc3C2=O)cc(OC)c1 | 87.8% | 46.1% | 40.8% | –
COc1ccc(-c2nc(N)nc3c2CCc2ccc(Br)cc2-3)cn1 | 95.4% | 40.6% | 43.8% | –
COc1cccc(-c2nc(N)nc3c2CCc2ccc(F)cc2-3)n1 | 95.4% | 66.9% | 50.3% | –
COc1cccc(/C=C2\CCc3ccc(F)cc3C2=O)n1 | 85.8% | 61.1% | 41.7% | –
COc1ccc(/C=C2\CCc3ccc(F)cc3C2=O)cn1 | 92.7% | 47% | 34.3% | –
COc1cncc(-c2nc(N)nc3c2CCc2ccc(F)cc2-3)c1 | 97.4% | 80.2% | 60.8% | Activity (BV-2 [4]): Dde; Activity (BV-2 [5]): 30.7%; Activity (BV-2 [6]): 13%; Activity (BV-2 [7]): 54.8%; Activity (BV-2 [8]): 70.7%; Activity (BV-2 [9]): Dde; Activity (BV-2 [10]): Dde; Activity (BV-2 [11]): Dde
COc1cncc(-c2nc(N)nc3c2CCc2ccc(OC)cc2-3)c1 | 94.7% | 53.8% | 47.3% | –
S=C(S)N1CCCC1 [PYRROLIDINE DITHIOCARBAMATE] | – | 64% | 55.9% | –
COc1ccc(/C=C2\CCc3ccc(F)cc3C2=O)cc1C(F)(F)F | 94.7% | 42.3% | 38.6% | –
COc1cncc(/C=C2\CCc3ccc(F)cc3C2=O)c1 | 94.4% | 46.4% | 33.3% | –
COc1cc(OC)cc(-c2nc(N)nc3c2CCc2ccc(F)cc2-3)c1 | 95.4% | 51.7% | 45.3% | –

SMILES | viability at 24 h, 2.5 ug/ml [1] | Activity (BV-2 [2]) | Activity (BV-2 [3]) | also measured
COc1ccc2c(c1)C(=O)/C(=C/c1ccc(OC)nc1)CC2 | 93.1% | 45% | 23.8% | –
COc1ccc(-c2nc(N)nc3c2CCc2ccc(F)cc2-3)cc1C(F)(F)F | 91% | 43% | 42.4% | –
COc1ccc2c(c1)C(=O)/C(=C/c1ccc(OC)cc1C(F)(F)F)CC2 | 88.3% | 44.9% | 40% | –
COc1cccc(-c2nc(N)nc3c2CCc2ccc(Br)cc2-3)n1 | 88.9% | 55.8% | 44.8% | –
COc1ccc2c(c1)-c1nc(N)nc(-c3ccc(OC)cc3C(F)(F)F)c1CC2 | 89.9% | 54.3% | 38.2% | –
COc1cncc(/C=C2\CCc3ccc(OC)cc3C2=O)c1 | 92.3% | 43.7% | 29.7% | –
COc1ccc(-c2nc(N)nc3c2CCc2ccc(F)cc2-3)cn1 | 89.6% | 43.9% | 43.3% | –
COc1cc(/C=C2\CCc3ccc(Br)cc3C2=O)cc(OC)c1OC | 93.5% | 35.9% | 33.1% | –
COc1cncc(/C=C2\CCc3ccc(Br)cc3C2=O)c1 | 94.9% | 47% | 35.9% | –
COc1cncc(-c2nc(N)nc3c2CCc2ccc(Br)cc2-3)c1 | 93.2% | 43.3% | 49.4% | –
COc1ccc2c(c1)C(=O)/C(=C/c1ccc(OC)c(C(F)(F)F)c1)CC2 | 94.4% | 44.4% | 32.8% | –
COc1cccc(/C=C2\CCc3ccc(F)cc3C2=O)c1 | 90.3% | 35.2% | 34% | –
COc1ccc2c(c1)-c1nc(N)nc(-c3ccc(OC)nc3)c1CC2 | 87.5% | 43.7% | 42.7% | –
COc1cc(-c2nc(N)nc3c2CCc2ccc(Br)cc2-3)cc(OC)c1OC | 93.1% | 43.7% | 39.9% | –
COc1ccc2c(c1)-c1nc(N)nc(-c3ccc(OC)c(C(F)(F)F)c3)c1CC2 | 90.3% | 44.2% | 46.7% | –
